The record followed here is US6825230B2, “Spiro and dispiro 1,2,4-trixolane antimalarials” (Medicines for Malaria Venture MMV, priority 2002, dated 2004).

Experiment [1] deals with Schistosoma mansoni 21-day-old schistosomules. The experiment can be described thus: Effect on 21-day-old schistosomules in infected mice. The class given is in vivo. Particulars: for % reduction of schistosomule growth at day 21 after per os application of 200 mg/kg, FWR (%): female worm reduction rate. Here is the method: Mice were infected with 100 Schistosoma mansoni cercariae on day 21 post-treatment. Each group was treated per os with trioxolanes at a single dose of 200 mg/kg. […] All groups were killed 4 weeks after treatment and the liver and intestine were removed and separated. The liver and intestine were compressed and alive male and female worms could be seen and counted. The effect of the compounds was evaluated by mean total and female worm burden.

In experiment [2] the test system is Schistosoma mansoni adult worms (49-day-old). As to the kind of experiment: Effect on adult schistosomes (49-day-old) in infected mice. To be noted: for % reduction of adult worms growth at day 49 after per os application of 400 mg/kg, TWR (%) / Adult worms day 49, per os 400 mg/kg, DEAD WORM (%): single 400 mg/kg per os. The class given is in vivo. The protocol: Mice were infected with 100 Schistosoma mansoni cercariae on day 49 post-treatment. Each group was treated per os with OZ compounds at single doses of 200, 400, and 600 mg/kg. Untreated mice served as the control. All groups were killed 4 weeks after treatment and the liver and intestine were removed and separated. The liver and intestine were compressed and alive male and female worms could be seen and counted.

Where [3] appears, read: single 200 mg/kg per os, 21-day-old schistosomules.
[4] abbreviates: single 200 mg/kg per os, 21-day-old schistosomules, total worm reduction rate.
Where [5] appears, read: 49-day-old adults, total worm reduction rate.
Where [6] appears, read: percentage of dead worm in the liver.

Take `CC1(C)COC2(CCC3(CC2)OOC2(CC(C)(C)CC(C)(C)C2)O3)OC1` [OZ36]: in experiment [1] (setting [3]), the “% reduction of schistosomule growth at day 21 after per os application of 200 mg/kg, FWR (%)” value came out at 12%. Also, the “% reduction of schistosomule growth at day 21 after per os application of 200 mg/kg, TWR (%)” value in experiment [1] (setting [4]) is on record as 16%. Further, the “% reduction of adult worms growth at day 49 after per os application of 400 mg/kg, TWR (%)” value in experiment [2] (setting [5]) was 0/0%. Besides, in experiment [2] (setting [6]), the “Adult worms day 49, per os 400 mg/kg, DEAD WORM (%)” value is given as 0/0%.
As for `C1C2CC3CC1CC(C2)C31OOC2(O1)C1CC3CC(C1)CC2C3` (stereo not drawn) [OZ04], the “% reduction of schistosomule growth at day 21 after per os application of 200 mg/kg, FWR (%)” value in experiment [1] (setting [3]) turned out to be 7%. In addition, the “% reduction of schistosomule growth at day 21 after per os application of 200 mg/kg, TWR (%)” value in experiment [1] (setting [4]) was determined as 7%. In addition, the “% reduction of adult worms growth at day 49 after per os application of 400 mg/kg, TWR (%)” value in experiment [2] (setting [5]) is on record as 0/0%. The “Adult worms day 49, per os 400 mg/kg, DEAD WORM (%)” value in experiment [2] (setting [6]) is reported as 0/0%.
Take `CCOC(=O)N1CCC2(CC1)OOC1(O2)C2CC3CC(C2)CC1C3` (stereo not drawn) [OZ23]: the “% reduction of schistosomule growth at day 21 after per os application of 200 mg/kg, FWR (%)” value in experiment [1] (setting [3]) is on record as 84%. Besides, the “% reduction of schistosomule growth at day 21 after per os application of 200 mg/kg, TWR (%)” value in experiment [1] (setting [4]) is reported as 90%. The “% reduction of adult worms growth at day 49 after per os application of 400 mg/kg, TWR (%)” value in experiment [2] (setting [5]) worked out at 0%. In experiment [2] (setting [6]), the “Adult worms day 49, per os 400 mg/kg, DEAD WORM (%)” value was 4%.
The like results for `CON=C1CCC2(CC1)OOC1(O2)C2CC3CC(C2)CC1C3` (stereo not drawn) [OZ15] were, in that order, 70%, 63%, 0% and 10%.
The matching figures for `O=C1C2C3CC4C5C3C1C5C1(OOC3(O1)C1CC5CC(C1)CC3C5)C42` (stereo not drawn) [OZ14]: 0%, 7%, 0/0% and 0/0%.
Turning to `C1CCC2(CC1)OOC1(O2)C2CC3CC(C2)CC1C3` (stereo not drawn) [OZ03], the “% reduction of schistosomule growth at day 21 after per os application of 200 mg/kg, TWR (%)” value in experiment [1] (po, 200 mg/kg, 504 h) was 74%. For the same compound, the “% reduction of schistosomule growth at day 21 after per os application of 200 mg/kg, FWR (%)” value in experiment [1] (setting [3]) worked out at 74%. Besides, the “% reduction of adult worms growth at day 49 after per os application of 400 mg/kg, TWR (%)” value in experiment [2] (setting [5]) amounted to 29%. Further, the “Adult worms day 49, per os 400 mg/kg, DEAD WORM (%)” value in experiment [2] (setting [6]) is given as 8%.
On to `OCCC1CCC2(CC1)OOC1(O2)C2CC3CC(C2)CC1C3` (stereo not drawn) [OZ89], for which the “% reduction of schistosomule growth at day 21 after per os application of 200 mg/kg, FWR (%)” value in experiment [1] (setting [3]) stood at 81%. In experiment [1] (setting [4]), the “% reduction of schistosomule growth at day 21 after per os application of 200 mg/kg, TWR (%)” value came to 86%. Moreover, in experiment [2] (setting [5]), the “% reduction of adult worms growth at day 49 after per os application of 400 mg/kg, TWR (%)” value stood at 0%. In experiment [2] (setting [6]), the “Adult worms day 49, per os 400 mg/kg, DEAD WORM (%)” value stood at 17%.
The matching figures for `O=C(c1ccccc1)N1CCC2(CC1)OOC1(O2)C2CC3CC(C2)CC1C3` (stereo not drawn) [OZ24]: 61%, 65%, 21% and 0%.
The matching figures for `O=C1CC2CC3(CC2C1)OOC1(O3)C2CC3CC(C2)CC1C3` (stereo not drawn) [OZ12]: 79%, 78%, 14% and 0%.
On to `C1COC2(CCC3(CC2)OOC2(O3)C3CC4CC(C3)CC2C4)O1` (stereo not drawn) [OZ10], for which the “% reduction of schistosomule growth at day 21 after per os application of 200 mg/kg, FWR (%)” value in experiment [1] (setting [3]) is 73%. In addition, the “% reduction of schistosomule growth at day 21 after per os application of 200 mg/kg, TWR (%)” value in experiment [1] (setting [4]) was 66%. The “% reduction of adult worms growth at day 49 after per os application of 400 mg/kg, TWR (%)” value in experiment [2] (setting [5]) was determined as 28%. Also, the “Adult worms day 49, per os 400 mg/kg, DEAD WORM (%)” value in experiment [2] (setting [6]) came out at 13%. The “% reduction of adult worms growth at day 49 after per os application of 600 mg/kg, TWR (%)” value in experiment [2] (single 600 mg/kg per os, 49-day-old adults, total worm reduction rate) is reported as 21%. The “Adult worms day 49, per os 600 mg/kg, DEAD WORM (%)” value in experiment [2] (single 600 mg/kg per os, percentage of dead worm in the liver) was determined as 23%.
